PMC2477751 (International journal of experimental diabetes research, 2000)
“Also recorded” adds a separate entry of the source. Like-named read-outs stand apart in the source and are kept apart here.

Key:
[1] = system: serum growth hormone (GH); assay: Serum rat growth hormone (RIA) after subcutaneous octreotide injection; format: in vivo
[2] = system: serum insulin-like growth factor I (IGF-I); assay: Serum IGF-I (RIA after acid-methanol extraction) after subcutaneous octreotide injection; format: in vivo, rat
[3] = system: hypoxia-induced retinal neovascularization; assay: Neonatal rat retinopathy (ROP) model, alternating hypoxia/hyperoxia, histologic scoring of eyes; format: in vivo
Experimental: We evaluated its effect on retinal neovascularization in vivo, using a neonatal rat retinopathy model. Methods: We used, on alternating days, hypoxia (10% O2) and hyperoxia (50% O2) during the first 14 days of neonatal rats, to induce retinal neovascularization. […] At day 18 the eyes were evaluated for the presence of epiretinal and vitreal hemorrhage, neovascularization and epiretinal proliferation.
Int. Jnl. Experimental Diab. Res., Vol. 1, pp. 39-47 Reprints available directly from the publisher Photocopying permitted by license only (C) 2000 OPA (Overseas Publishers Association) N.V. Published by license under the Harwood Academic Publishers imprint, part of The Gordon and Breach Publishing Group. Printed in Malaysia. […] We evaluated its effect on retinal neo- vascularization in vivo, using a neonatal rat retino- pathy model. Methods: We used, on alternating days, hypoxia (10%O2) and hyperoxia (50%02) during the first 14 days of neonatal rats, to induce retinal neovascu- larization. […] At day 18 the eyes were evaluated for the presence of epiretinal and vitreal hemorrhage, neovasculariza- tion and epiretinal proliferation. […] Keywords: Retinopathy of prematurity, angiogenesis, insulin- like growth factor, growth hormone, neovascularization INTRODUCTION Retinal neovascularization is a common feature of several eye diseases characterized by retinal hypoxia, such as proliferative diabetic retino- pathy (PDR) and retinopathy of prematurity (ROP). While the underlying pathology may be different in these conditions, the neovascular pro- cess itself leads to destruction of normal retina and eventually causes blindness. *Corresponding author. Department of Ophthalmology, Hadassah University Hospital, P. O. Box 12000, Jerusalem 91120, Israel. Tel.: +972-2-677 6927, Fax: +972-2-643 4434, e-maih edward@md2.huji.ac.il 39 40 E. AVERBUKH et al. Growth hormone (GH) and insulin-like growth factor I (IGF-I) have been implicated in the pathogenesis of PDR (Lundbaek et al., 1970; Dills et al., 1991). […] High vitre- ous levels of IGF-I and IGF binding proteins (IGFBPs) were found in patients with neovas- cular eye disease related to diabetes and to other ischemic retinal conditions (Meyer-Schwickerath et al., 1993). In addition, a recent study demon- strated the essential role of GH and IGF-I in the development of retinal neovascularization in the ROP model in mice (Smith et al., 1997). Decades ago, before the advent of lasers, elimination of GH production by pituitary ablation was an accepted therapy for PDR (Bradley, Rees and Fager, 1965). […] METHODS Animals Fifty-six neonatal Sabra rats (provided by the Harlan Laboratories, Jerusalem, Israel) were divided into experimental groups of eight to ten animals from mixed litters, not divided ac- cording to gender. At the age of one day the group with the lactating mother were placed in an incubator with a controlled oxygen con- centration. […] All the animals were maintained and treated in ac- cordance with the Association for Research in Vision and Ophthalmology statement on the use of animals in ophthalmic and vision re- search. Retinal neovascularization was induced by alternating oxygen concentrations as pre- viously described (Reynaud and Dorey, 1994; Penn, Tolman and Lowery, 1993). Briefly, the animals were exposed on alternating days to hypoxia (10% O2-24h) and hyperoxia (50% O2-24h) during their first 14 days, followed by four days in room air. Hypoxia was produced by mixing air with nitrogen, and hyperoxia by mixing air with oxygen. A minimal flow of two liters per minute was maintained. […] At day 18 the rats were anesthetized with ether and sacrificed. The eyes were enu- cleated and placed in formaldehyde. […] These areas are prone to ischemia when the oxygen level is lowered.

[4] = design: method as in Bauer et al., 1982; conditions: ref Bauer et al., 1982; cited from earlier work
Text: Int. Jnl. Experimental Diab. Res., Vol. 1, pp. 39-47 Reprints available directly from the publisher Photocopying permitted by license only (C) 2000 OPA (Overseas Publishers Association) N.V. Published by license under the Harwood Academic Publishers imprint, part of The Gordon and Breach Publishing Group. Printed in Malaysia.

[5] = system: IGF-I mRNA, GH stimulated hepatocytes; conditions: ref Serri et al., 1992, cited from earlier work
Text: (§1) Int. Jnl. Experimental Diab. […] Printed in Malaysia.

[6] = system: human retinal endothelial cell (HREC); conditions: HREC stimulated by IGF-I and bFGF, ref Grant et al., 1993b, cited from earlier work
Text: as §1

[7] = Serum octreotide level (RIA) after subcutaneous injection in neonatal rats; conditions: Sabra, rat, sc
[8] = stated for both the octreotide-treated and the control groups

## C[C@@H](O)[C@@H]1NC(=O)[C@H](CCCCN)NC(=O)[C@@H](Cc2c[nH]c3ccccc23)NC(=O)[C@H](Cc2ccccc2)NC(=O)[C@@H](NC(=O)[C@H](N)Cc2ccccc2)CSSC[C@@H](C(=O)N[C@H](CO)[C@@H](C)O)NC1=O [octreotide]
[1]; 9 and 14 hours after injection
  Serum GH level vs control group: returned to baseline; also recorded: comparable
[1]; 2 hours after injection, p = 0.002
  Decrease of serum GH level compared with saline injected animals: 40%
[2]; 2 hours after injection
  Serum IGF-I level vs control group: unchanged; also recorded: similar
[2]; 9 hours after injection, p 0.06
  Elevation of serum IGF-I level vs control group: 19%
[2]; 14 hours after injection, p = 0.02
  Elevation of serum IGF-I level vs control group: 26%
[3]; 0.7 μg/g BW s.c. twice daily, Mann-Whitney Rank Sum Test vs saline
  Effect of injections on retinal pathology: no statistically significant effect
[3]; octreotide-treated eyes, day 18 (control 27%)
  Eyes in which NV was found: 35%
[3]; [8]
  Eyes affected by any of epiretinal and vitreal hemorrhages: ~70%
  Eyes affected by epiretinal or by vitreal hemorrhages, each one of them: approximately 45%
[3]; stated for each group
  Eyes affected by PVR: less than 40%
[3]; twice-daily injections, neonatal rat ROP model
  Retinal neovascularization: not inhibited
[4]
  Plasma half-life: 1.5 h
[5]; high concentrations of octreotide (30 and 300 μg/l)
  IGF-I mRNA abundance in cultured GH stimulated hepatocytes: no effect
[5]; low octreotide concentrations (0.3 and 3 μg/l)
  IGF-I mRNA levels in cultured GH stimulated hepatocytes: significantly reduced
[6]; octreotide level 1.6 μg/l
  Inhibition of [3H]thymidine incorporation: 15%
[6]; octreotide level 16 μg/l
  Inhibition of [3H]thymidine incorporation: 35%
[6]; octreotide level 164 μg/l
  Inhibition of [3H]thymidine incorporation: 60%
[7]; 0.7 μg/g BW
  half-life: 1.63 h
[7]; 20 ug
  level at 9 h: 26.4 ng/mL
  level at 14 h: 3.2 ng/mL
